Test results: paper PMC8400033, “A Multicomponent Protocol for the Synthesis of Highly Functionalized γ-Lactam Derivatives and Their Applications as Antiproliferative Agents” (Pharmaceuticals, 2021)
Read-outs that look alike come from different tables or passages of the source.

Tests used:
[1] = test system: A549 (carcinomic human alveolar basal epithelial cell); experiment: CCK-8 antiproliferative assay, A549 cell line; type: cell-based
Description: (§1) In vitro cytotoxicity of the γ-lactam derivatives was evaluated by testing their antiproliferative activities against several human cancer cell lines. Cell counting kit (CCK-8) assay was used for the evaluation of growth inhibition.
(§2) All stock solutions of the investigated compounds were prepared by dissolving the powdered materials in appropriate amounts of DMSO. The final concentration of DMSO never exceeded 5% (v/v) in reactions. The stock solution was stored at 5 °C until it was used.
(§3) All were supplemented with 10% of fetal bovine serum (FBS) (Sigma-Aldrich, Madrid, Spain) and with 1% of NORMOCIN solution (Thermo Fisher, Waltham, Massachusetts, MA, USA). […] For cytotoxicity experiments, A549 cells were seeded in 96-well plates at a density of 2.5–3 × 10^3 cells per well and incubated overnight to achieve 70% of confluence at the time of exposition to the cytotoxic compound.
(§4) Both were supplemented with 10% of fetal bovine serum (FBS) (Sigma-Aldrich, Spain) and with 1% of NORMOCIN solution (Thermo Fisher, Waltham, Massachusetts, MA, USA). […] For cytotoxicity experiments, A549 cells were seeded in 96-well plates at a density of 2.5–3 × 10^3 cells per well and incubated overnight to achieve 70% of confluence at the time of exposition to the cytotoxic compound.

[2] = test system: SKOV3 (human ovarian carcinoma); experiment: CCK-8 antiproliferative assay, SKOV3 cell line
Description: as §1, §2, §3

[3] = test system: MRC5 non-malignant lung fibroblasts; experiment: CCK-8 assay on non-malignant cells for selective toxicity; type: cell-based; conditions: Homo sapiens
Description: as §1, §2, §3, §4

[4] = test system: RKO (human colon epithelial carcinoma); experiment: CCK-8 antiproliferative assay, RKO cell line; type: cell-based
Description: as §1, §2, §3

[5] = Homo sapiens, A549, A549 cell line, CCK-8, read-out: IC50 A549
[6] = Homo sapiens, SK-OV-3, read-out: IC50 SKOV3, SKOV3 cell line, CCK-8
[7] = MRC5 non-malignant lung fibroblasts, CCK-8, read-out: IC50 MRC5
[8] = Homo sapiens, SK-OV-3, read-out: IC50 SKOV3
[9] = Homo sapiens, A549, read-out: IC50 A549
[10] = Homo sapiens, A549, read-out: IC50 of individual enantiomers of 4v

Row | SMILES | IC50 [1, 5] [µM] | IC50 [2, 6] [µM] | IC50 [3, 7] [µM] | also measured
1 | CCOC(=O)[C@]1(C)C[C@@H](Nc2ccc(C)cc2)C(=O)N1c1ccc(C)cc1 (relative stereo) [compound 17, Ethyl (2S*, 4R*)-2-methyl-5-oxo-1-(p-tolyl)-4-(p-tolylamino)-pyrrolidine-2-carboxylate] | > 50 | > 50 | – | melting point: 173 to 174 °C
2 | Cc1ccc(NC2=CCN(c3ccc(C)cc3)C2=O)cc1 [4a, 1-(p-Tolyl)-3-(p-tolylamino)-1,5-dihydro-2H-pyrrol-2-one] | – | – | > 50 | melting point: 178 to 180 °C; Cytotoxic activity against SKOV3 cell line, in words [2]: did not show activity; IC50 [2, 8]: > 50 µM
3 | Cc1ccc(NC2=CC(c3ccc(C)cc3)N(c3ccc(C)cc3)C2=O)cc1 (stereo not drawn) [4c] | 21 ± 1.64 | > 50 | > 50 | melting point: 210 to 213 °C
4 | Cc1ccc(NC2=CC(c3cccc(C)c3)N(c3ccc(C)cc3)C2=O)cc1 (stereo not drawn) [4d] | 31.2 ± 1.04 | > 50 | > 50 | –
5 | Cc1ccc(NC2=CC(c3ccccc3C)N(c3ccc(C)cc3)C2=O)cc1 (stereo not drawn) [4e] | 41.3 ± 1.29 | > 50 | > 50 | –
6 | Cc1ccc(NC2=CC(c3ccc(F)cc3)N(c3ccc(C)cc3)C2=O)cc1 (stereo not drawn) [4f] | 10.7 ± 1.21 | 23.5 ± 0.75 | > 50 | –
7 | Cc1ccc(NC2=CC(c3ccc([N+](=O)[O-])cc3)N(c3ccc(C)cc3)C2=O)cc1 (stereo not drawn) [4g] | 17.1 ± 1.58 | 22.9 ± 0.63 | 26.6 ± 2.89 | IC50 [4]: 23.8 ± 2.53 µM
8 | Cc1ccc(NC2=CC(c3cccc([N+](=O)[O-])c3)N(c3ccc(C)cc3)C2=O)cc1 (stereo not drawn) [4h] | 7.33 ± 0.57 | 27.7 ± 1.32 | 27.2 ± 1.24 | –
9 | Cc1ccc(NC2=CC(c3ccc(C(F)(F)F)cc3)N(c3ccc(C)cc3)C2=O)cc1 (stereo not drawn) [4i] | > 50 | > 50 | – | IC50 [4]: > 50 µM
10 | Cc1ccc(NC2=CC(c3ccc4ccn(C)c4c3)N(c3ccc(C)cc3)C2=O)cc1 (stereo not drawn) [4j] | 19.3 ± 0.7 | > 50 | > 50 | –
11 | Cc1ccc(NC2=CC(c3ccco3)N(c3ccc(C)cc3)C2=O)cc1 (stereo not drawn) [4k] | 11.5 ± 0.85 | > 50 | > 50 | –
12 | Cc1ccc(NC2=CC(c3cccs3)N(c3ccc(C)cc3)C2=O)cc1 (stereo not drawn) [4l] | 12.7 ± 1.07 | 12.7 ± 1.83 | > 50 | –
13 | Cc1ccc(NC2=CC(c3ccc4ccccc4c3)N(c3ccc(C)cc3)C2=O)cc1 (stereo not drawn) [4m] | 12.1 ± 0.74 | 30.5 ± 1.34 | 21.3 ± 0.74 | –
14 | Cc1ccc(NC2=CC(C)N(c3ccc(C)cc3)C2=O)cc1 (stereo not drawn) [4n] | 15.7 ± 0.92 | 29.2 ± 1 | > 50 | –
15 | Cc1ccc(NC2=CC(C(C)C)N(c3ccc(C)cc3)C2=O)cc1 (stereo not drawn) [4o] | 11.1 ± 0.71 | > 50 | > 50 | –
16 | Cc1ccc(NC2=CC(/C=C/c3ccccc3)N(c3ccc(C)cc3)C2=O)cc1 (stereo not drawn) [4r] | ~10 | ~10 | 18.2 ± 0.81 | IC50 ([1]; A549 cell line, CCK-8, read-out: IC50 A549): 10.3 ± 0.8 µM; IC50 ([2]; read-out: IC50 SKOV3, SKOV3 cell line, CCK-8): 9.59 ± 0.82 µM
17 | Cc1ccc(NC2=CC(c3c(F)c(F)c(F)c(F)c3F)N(c3ccc(C)cc3)C2=O)cc1 (stereo not drawn) [4t] | 33.5 ± 1.68 | > 50 | > 50 | IC50 [4]: > 50 µM
18 | Cc1ccc(NC2=CC(C(F)(F)F)N(c3ccc(C)cc3)C2=O)cc1 (stereo not drawn) [4u] | > 50 | > 50 | – | IC50 [4]: > 50 µM
19 | CCOP(=O)(CC1C=C(Nc2ccc(C)cc2)C(=O)N1c1ccc(C)cc1)OCC (stereo not drawn) [4v] | – | – | – | IC50 [1, 9]: 11.3 ± 1.8 µM; IC50 [4]: > 50 µM; IC50 ([3]; MRC5, read-out: IC50 MRC5): > 50 µM; IC50 [2, 8]: > 50 µM
20 | Cc1ccc(NC2=CC(CP(=O)(c3ccccc3)c3ccccc3)N(c3ccc(C)cc3)C2=O)cc1 (stereo not drawn) [4w] | 5.67 ± 0.9 | 10.8 ± 0.88 | 30.1 ± 0.49 | IC50 [4]: 28.1 ± 1.47 µM
21 | CC1=C(Nc2ccc(C)cc2)C(=O)N(c2ccc(C)cc2)C1c1ccc([N+](=O)[O-])cc1 (stereo not drawn) [5a] | 2.05 ± 0.23 | > 50 | > 50 | –

Row | SMILES | IC50 [1, 5] [µM] | IC50 [2, 6] [µM] | IC50 [3, 7] [µM] | also measured
22 | Cc1ccc(NC2=C(Cc3ccccc3)C(c3ccc([N+](=O)[O-])cc3)N(c3ccc(C)cc3)C2=O)cc1 (stereo not drawn) [5b] | 9.92 ± 1.15 | > 50 | 47.6 ± 1.67 | –
23 | COC(=O)C1=C(Nc2ccc(C)cc2)C(=O)N(c2ccc(C)cc2)C1c1ccccc1 (stereo not drawn) [5c] | – | – | > 50 | melting point: 179 to 181 °C
24 | CCOP(=O)(OCC)C1=C(Nc2ccc(C)cc2)C(=O)N(c2ccc(C)cc2)C1 [5d] | – | – | – | IC50 [1, 9]: > 50 µM; IC50 [4]: > 50 µM; IC50 ([3]; MRC5, read-out: IC50 MRC5): > 50 µM; IC50 [2, 8]: > 50 µM
25 | COc1ccc(NC2=CC(c3ccccc3)N(c3ccc(OC)cc3)C2=O)cc1 (stereo not drawn) [6a] | 12 ± 1.96 | 6.84 ± 0.59 | > 50 | –
26 | COc1ccc(NC2=CC(c3ccc([N+](=O)[O-])cc3)N(c3ccc(OC)cc3)C2=O)cc1 (stereo not drawn) [6b] | 31.5 ± 1.37 | > 50 | > 50 | IC50 [4]: > 50 µM
27 | CCOP(=O)(CC1C=C(Nc2ccc(OC)cc2)C(=O)N1c1ccc(OC)cc1)OCC (stereo not drawn) [6c] | – | – | – | IC50 [1, 9]: 6.84 ± 0.22 µM; IC50 ([3]; MRC5, read-out: IC50 MRC5): > 50 µM; Cytotoxic activity against SKOV3 cell line, in words [2]: did not show any cytotoxicity; IC50 [2, 8]: > 50 µM
28 | O=C1C(Nc2ccc(Br)cc2)=CC(c2ccc([N+](=O)[O-])cc2)N1c1ccc(Br)cc1 (stereo not drawn) [8a] | > 50 | > 50 | – | –
29 | O=C1C(Nc2ccc(Br)cc2)=CC(c2ccc(C(F)(F)F)cc2)N1c1ccc(Br)cc1 (stereo not drawn) [8b] | > 50 | > 50 | – | IC50 [4]: > 50 µM
30 | O=C1C(Nc2cccc(C(F)(F)F)c2)=CC(c2ccc([N+](=O)[O-])cc2)N1c1cccc(C(F)(F)F)c1 (stereo not drawn) [11b] | 2 ± 0.78 | 8.5 ± 0.54 | 44.6 ± 1.16 | –
31 | O=C1C(Nc2ccc3ccccc3n2)=CC(c2ccc([N+](=O)[O-])cc2)N1c1ccc2ccccc2n1 (stereo not drawn) [12a] | 9.25 ± 1.49 | > 50 | > 50 | Cytotoxic activity against SKOV3 cell line, in words [2]: No activity
32 | Cc1ccc(N[C@@H]2C[C@H](C(F)(F)F)N(c3ccc(C)cc3)C2=O)cc1 [18a] | 3.27 ± 0.65 | > 50 | > 50 | –
33 | CCOP(=O)(C[C@H]1C[C@@H](Nc2ccc(C)cc2)C(=O)N1c1ccc(C)cc1)OCC [18b] | – | – | – | IC50 [1, 9]: 4.25 ± 0.65 µM; IC50 [4]: > 50 µM; IC50 ([3]; MRC5, read-out: IC50 MRC5): > 50 µM; IC50 [2, 8]: > 50 µM
34 | Cc1ccc(/N=C(/C=C/C=C/c2ccccc2)C(=O)Nc2ccc(C)cc2)cc1 [20a, (2Z, 3E, 5E)-6-Phenyl-N-(p-tolyl)-2-(p-tolylimino)hexa-3,5-dienamide] | 6.9 ± 0.73 | > 50 | > 50 | –
35 | Cc1ccc(\N=C(/C=C/C=C/c2ccc(C(F)(F)F)cc2)C(=O)Nc2ccc(C)cc2)cc1 [20b] | 9.77 ± 0.17 | > 50 | > 50 | –
36 | CCOP(=O)(C[C@H]1C=C(Nc2ccc(C)cc2)C(=O)N1c1ccc(C)cc1)OCC [(R)-4v] | – | – | – | IC50 [1, 10]: 9.23 ± 1.68 µM
37 | CCOP(=O)(C[C@@H]1C=C(Nc2ccc(C)cc2)C(=O)N1c1ccc(C)cc1)OCC [(S)-4v] | – | – | – | IC50 [1, 10]: 10.5 ± 0.8 µM
38 | COc1cccc2c1C(=O)c1c(O)c3c(c(O)c1C2=O)C[C@@](O)(C(=O)CO)C[C@@H]3O[C@H]1C[C@H](N)[C@H](O)[C@H](C)O1 [Doxorubicin, reference compound] | – | – | > 50 | –
39 | O=C1C(Nc2ccc(Cl)cc2)=CC(c2ccc([N+](=O)[O-])cc2)N1c1ccc(Cl)cc1 (stereo not drawn) [compound 7] | 17.2 ± 2.1 | > 50 | > 50 | –
40 | O=C1C(Nc2cccc(Cl)c2)=CC(c2ccc([N+](=O)[O-])cc2)N1c1cccc(Cl)c1 (stereo not drawn) [compound 9] | 8.37 ± 1.27 | 16.1 ± 0.81 | 23.8 ± 1.75 | –
41 | O=C1C(Nc2ccccc2F)=CC(c2ccc([N+](=O)[O-])cc2)N1c1ccccc1F (stereo not drawn) [compound 10] | 4.36 ± 0.51 | 5.55 ± 0.62 | > 50 | –
42 | CCOP(=O)(CC1=C(C)C(C)(Nc2ccc(C)cc2)C(=O)N1c1ccc(C)cc1)OCC (stereo not drawn) [compound 19, Diethyl ((3,4-dimethyl-5-oxo-1-(p-tolyl)-4-(p-tolylamino)-4,5-dihydro-1H-pyrrol-2-yl)methyl)phosphonate] | – | – | – | IC50 [1, 9]: 3.65 ± 0.25 µM; IC50 [4]: > 50 µM; IC50 ([3]; MRC5, read-out: IC50 MRC5): > 50 µM; IC50 [2, 8]: > 50 µM
